Experimental data published in patent US11491129B2, “Oral formulations of bipolar trans carotenoids” (priority 2010, dated 2022).

How the values were obtained:
[1] = Intestinal (jejunum) absorption of TSC and effect of gamma cyclodextrin; type: in vivo; settings: rat jejunum; approx. 60 mg/kg TSC; TSC:gamma cyclodextrin 0.5:1 up to 4:1 (wt:wt); FIG. 2
Protocol: (§1) Male Sprague-Dawley (SD) and Wistar rats weighing approximately 300-400 g each were fasted for 24 hours prior to each experiment. Water was given ad libitum and coprophagy was prevented by using cages with wire-mesh floors. Anesthesia was induced and maintained with isoflurane. The carotid artery was exposed and cannulated with PE-50 tubing. The cannula was secured using silk sutures and 2% lidocaine was applied to the wound.
Following cannulation, a front midline […] was made, exposing the abdomen and intestinal segments. In this study, the jejunum was isolated and the TSC formulation was administered in the proximal jejunum. Approximately 60 mg/kg TSC was administered at various gamma cyclodextrin ratios of 0.5:1 up to 4:1 (wt. TSC:wt. gamma cyclodextrin). Movement of TSC within the intestinal segments was not restricted distal to the site of administration. The intestine was replaced and the abdomen closed with sutures. Approximately 0.3 mL blood samples were taken for the carotid artery at discrete time intervals following TSC administration. A small amount of sodium heparin was used as an anticoagulant. The blood samples were centrifuged and the resulting plasma volume mixed with 3 volumes of methanol and vortexed. The plasma mixture was then centrifuged and the supernatant was analyzed by HPLC to determine TSC levels.

neurons [2] = assay: Rat model of Parkinson's disease (6-OHDA), pretreatment, live neuron counts; type: in vivo; settings: TSC 0.1 mg/kg for 7 days preceding 10 μg 6-OHDA; sacrifice 4 weeks later; FIG. 8
Protocol: Another model that was used examined the effect of TSC on neuronal viability is a rat model of Parkinson's disease. In this model, a burr hole is drilled through the skull and into the region of the substantia nigra. The Parkinson's-like condition is induced by injecting 6-hydroxydopamine (6-OHDA) into the brain. An amount of 10 μg of 6-OHDA is frequently injected in this model, and was used in the first study.
In the study, TSC was injected at a dosage of 0.1 mg/kg for 7 days preceding the injection of the 6-OHDA (the same dosing regimen as had been done in the crocetin study). Following the injection of the 6-OHDA, no further treatments were given over the next 4 weeks.
At that time the rats were sacrificed and the brains removed and sent to Charles River Laboratories for counts of live neurons. […] This allowed the comparison of cell death (treated side count/untreated side count) of the controls, which had been pretreated with saline, to the animals pretreated with TSC.

neurons [3] = assay: Rat model of Parkinson's disease (6-OHDA), post-treatment, live neuron counts; type: in vivo
Protocol: It is of much more interest to know the effect of post-treatment on neuronal death following the injection of 6-OHDA. To investigate that, 5 μg of 6-OHDA were again injected into the substantia nigra as before, but the treatment began following that injection. The animals were then given daily injections of TSC (0.25 mg/kg) for 4 weeks before sacrifice. The brains were removed and sent to Charles River Laboratories for neuronal counts.

[4] = Behaviour of TSC under acidic conditions (stomach); type: physicochemical
Source text: TSC is precipitated under acidic conditions, such as those which exist in the stomach. […] TSC is not stable in acidic conditions and will be converted to the cis isomer which can precipitate. A system has been devised that will protect TSC in the harsh, acidic environment of the stomach and release TSC in a more favorable pH region. A more favorable pH does exist in the small intestines. […] See Examples below. TSC's effectiveness is believed to be dependant on the TSC concentrations levels found in the body. The effectiveness of TSC can be prolonged by administering TSC orally. […] TSC must be protected from the harsh environment of the stomach and be release in a more favorable, higher pH region of the small intestine. For this study, tablets of TSC were made (Table 1) and were enterically coated with either Eudragit L100 or cellulose acetate phthalate (CAP). The integrity of both types of protective coatings were confirmed in a USP dissolution study in which enterically coated tablets were first place in a dissolution cell containing simulated gastric fluid (SGF), then transferred to another cell containing simulated intestinal fluid (SIF). […] This study was performed according to USP protocols.

neurons [5] = assay: Rat model of hemorrhagic stroke (collagenase), neuronal death; type: in vivo; settings: TSC injected starting 3 hours after collagenase, sacrifice at 48 hours
Protocol: The first study in which this was done was one conducted using a rat model of hemorrhagic stroke. […] TSC was then injected starting 3 hours after the collagenase was administered, and the animals were sacrificed 48 hours after the administration of the collagenase.
When there is a hemorrhage in the brain, the blood pools and forms a hematoma. Around the periphery of this hematoma, there is a death of neuronal cells. […] Use of the stain, fluorojade, allows one to count the numbers of “dead” neurons in a given brain section of the brain. This was done in the area around the hematomas formed in the hemorrhagic stroke rat model.

[6] = test system: B16 (mouse melanoma) cells; assay: Pulmonary metastasis mouse model, B16 tumor counts in lungs; type: in vivo
Source text: The pulmonary metastasis mouse model is a widely used model for the evaluation of tumor therapy. With B16 (mouse melanoma) cells, essentially all cells “take” upon intravenous cell injection in the tail vein, and the tumors are preferentially formed in the lungs. Thus, the term pulmonary metastasis is widely used even though every resulting pulmonary nodule is technically an independent “primary” tumor rather than a true metastasis.
There is always a fraction of nodules that is amelanotic (“white”) though, and this requires careful counting in order not to underestimate the tumor burden.
For the subject studies, eight-week-old female C57BL/6 mice were obtained from Charles River Laboratories. The mice were housed in groups of 5 or fewer, and received food and water ab libitum.
B16 cells were cultured by the Center for Cell Signaling of the University of Virginia using a standard protocol. The cells were received while they were in an exponential growth phase. The cells were supplied at a concentration of 5×10^5 cells/mL in Hank's buffered salt solution (HBSS).
The cells were injected immediately upon receipt, and this day was designated as Day 0. On Day 0, all of the mice were injected intravenously in the tail vein with 0.1 mL of the cell suspension, meaning that each mouse received 0.5×10^5 cells. The mice were then left alone until Day 4.
On Day 4, the mice were divided into two groups: Group A, consisting of 5 mice, received an intravenous injection of 0.05 mL of saline in the tail vein. Group B, composed of 7 mice, received an intravenous injection of 0.05 mL of a TSC solution in the tail vein, for a TSC dosage of 0.142 mg/kg/day. The same injections were repeated on Days 5-8 and on Days 11-15. On Day 18, the mice were sacrificed using carbon dioxide. The lungs were excised, rinsed and placed in Fekete's Solution and stored at room temperature.
Later, the lungs were assessed visually, in random, blinded order, to obtain a visual count of the numbers of tumors. […] Thus, the tumors were counted visually in two separate groups: small tumors and medium/large tumors. Although the majority of the tumors were black, there were also some white tumors.

[7] = Scalability for Cmax: TSC with gamma cyclodextrin 1:1 in jejunum; type: in vivo; settings: rat jejunum; 2.5, 5, 10 and 60 mg/kg TSC; TSC:gamma cyclodextrin 1:1; FIG. 4
Protocol: The dosage of TSC used in the above study is large, therefore, additional doses of TSC were administered with gamma cyclodextrin at a ratio of 1:1 (wt. TSC:wt. gamma cyclodextrin) in order to determine the scalability of systemic absorption (in terms of Cmax) with respect to TSC dosing amount. For the following study, TSC was administered to the jejunum intestinal segment at the following dosages: 2.5, 5, 10, and 60 mg/kg.
as §1, with “For this study, male” for “Male”
Following cannulation, a front midline […] was made, exposing the abdomen and intestinal segments. In this study, the jejunum was isolated and the TSC formulation was administered in the proximal jejunum. Movement of TSC within the intestinal segments was not restricted distal to the site of administration. The intestine was replaced and the abdomen closed with sutures. […] The plasma mixture was then centrifuged and the supernatant was analyzed by HPLC to determine TSC levels.

neurons [8] = settings: study found in the literature; crocetin pretreatment; cited from earlier work
[9] = C57BL/6 mice lungs Day 18, TSC 0.142 mg/kg/day iv, N 7
[10] = mean±standard deviation, C57BL/6 mice lungs Day 18, TSC 0.142 mg/kg/day iv, N 7

CC(/C=C/C=C(\C)C(=O)[O-])=C\C=C\C=C(C)\C=C\C=C(/C)C(=O)[O-].[Na+].[Na+] [TSC, trans sodium crocetinate]
effect of γ-cyclodextrin on absorption of TSC [1]: greatly enhances | percentage of live neurons (treated side count/untreated side count) vs saline controls (neurons [2]): approximately doubled | more live neurons vs saline (neurons [3]; 5 μg 6-OHDA, daily TSC 0.25 mg/kg for 4 weeks after injection, p<0.05, FIG. 9): about 20% | effect on viability of live neurons, non-6-OHDA side of the brain (neurons [3]; daily TSC 0.25 mg/kg for 4 weeks vs saline, FIG. 10): no effect | solubility in the acidic environment of the stomach ([4]; TSC is precipitated): practically insoluble | stability in acidic conditions ([4]; converted to the cis isomer): not stable | less death of the neurons around the periphery of the hematoma (neurons [5]): about 20% | less neuronal death, fluorojade count of dead neurons around the hematomas (neurons [5]; FIG. 7): approximately 30% | Small tumors med. ([6]; C57BL/6 mice lungs Day 18, TSC 0.142 mg/kg/day iv Days 4-8 and 11-15, N 7): 18 | Medium/Large tumors med. [6, 9]: 19 | Total tumors med. [6, 9]: 34 | statistical difference of tumor counts, TSC group vs saline group ([6]; Day 18, large standard deviations): not statistically different | Medium/Large tumors mean [6, 10]: 30 ± 24 | Small tumors mean [6, 10]: 32 ± 29 | Total tumors mean [6, 10]: 62 ± 53 | linear regression of Cmax versus TSC dosage [7]: excellent fit

CC(/C=C/C=C(\C)C(=O)O)=C\C=C\C=C(C)\C=C\C=C(/C)C(=O)O [crocetin]
effect of pretreatment on neuronal death following 10 μg 6-OHDA (neurons [8]): beneficial effect
